The values that follow come from patent US9102591B2, “Benzamides” (H. Lundbeck A/S, priority 2012, dated 2015).

SMILES strings stand for the structures.

In general, IC50 refers to the concentration that inhibits the measured activity by half.

Chain of P2X7 receptor (Q99572 whole entry): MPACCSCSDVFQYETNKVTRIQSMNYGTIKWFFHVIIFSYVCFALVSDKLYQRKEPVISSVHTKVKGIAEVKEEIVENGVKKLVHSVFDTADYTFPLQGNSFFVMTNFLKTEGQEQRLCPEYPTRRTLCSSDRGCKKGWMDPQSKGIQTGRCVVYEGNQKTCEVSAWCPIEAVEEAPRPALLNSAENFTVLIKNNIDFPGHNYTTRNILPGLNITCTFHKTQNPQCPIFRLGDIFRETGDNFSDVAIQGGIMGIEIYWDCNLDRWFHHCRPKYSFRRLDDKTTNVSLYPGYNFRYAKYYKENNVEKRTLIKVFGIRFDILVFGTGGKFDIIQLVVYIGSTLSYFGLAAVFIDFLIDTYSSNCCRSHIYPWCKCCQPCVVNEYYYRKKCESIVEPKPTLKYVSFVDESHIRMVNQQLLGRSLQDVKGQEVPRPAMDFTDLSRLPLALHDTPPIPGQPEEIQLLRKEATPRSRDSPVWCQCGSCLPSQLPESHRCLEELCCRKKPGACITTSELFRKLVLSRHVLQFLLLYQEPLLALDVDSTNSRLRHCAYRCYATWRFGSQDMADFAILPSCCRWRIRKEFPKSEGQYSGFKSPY

In the test the target is P2X7 receptor (Homo sapiens (Human), UniProt Q99572). In words: P2X7 FLIPR assay (BzATP-stimulated calcium fluorescence, antagonist IC50). Type of test: cell-based. Here is the method:
This example illustrates representative assays for use in evaluating the test compounds for antagonist activity. Compounds of the present invention were tested in vitro for their ability to act as antagonists to the P2X7receptor. […]
Cells were plated to cell density of approximately 15,000 cells/well in 384-well assay plates (50 μl/well) with 1.5% low serum media (DMEM, 1.5% FBS, 1% L-glut (2 mM), 10 mM HUES, 1% P/S). Cells were plated 24 hours prior to assay. Cells expressing human, rat or mouse P2X7 receptor were assayed in the following manner.
Fluo-4 NW dye mix (Molecular Probes, Inc., Eugene, Oreg., USA) was prepared in buffer (see manufacturer's instructions). Cell plates were removed from the 37° C. incubator, the media discarded and then 30 μL of dye was added to each well. Plates were placed in the 37° C., non-CO2 incubator for 30 minutes and then room temperature for 30 minutes.
Compound mixtures (A) were added to assay plates containing cells and placed at room temperature for 30 minutes, then BzATP (B) was added. Fluorescence was read using the Tetra FLIPR® (Molecular Devices, Inc., Sunnyvale, Calif., USA) and IC50 values were calculated by standard methods to determine antagonist activity.
For the compound `O=C(NCC(CC1(C(F)(F)F)CC1)c1ccc(C(F)(F)F)nc1)c1cccc(F)c1Cl` (single isomer, unassigned; (+)) [(+)2-chloro-3-fluoro-N-[3-[1-(trifluoromethyl)cyclopropyl]-2] [(+)2-chloro-3-fluoro-N-[3-[1-(trifluoromethyl)cyclopropyl]-2-[6-(trifluoromethyl)-3-pyridyl]propyl]benzamide], the IC50 amounted to 7.2 nM. For `O=C(NCC(c1ccc(F)cc1)c1cnc(C(F)(F)F)nc1)c1c(F)cccc1Cl` (single isomer, unassigned; (+)) [(+)2-chloro-6-fluoro-N-[2-(4-fluorophenyl)-2-[2-(trifluorome] [(+)2-chloro-6-fluoro-N-[2-(4-fluorophenyl)-2-[2-(trifluoromethyl)pyrimidin-5-yl]ethyl]benzamide] the value was 6.7 nM; for `O=C(NCC(c1ccc(F)cc1)c1ccc(C(F)(F)F)nc1)c1c(F)cccc1Cl` (single isomer, unassigned; (+)) [(+)2-chloro-6-fluoro-N-[2-(4-fluorophenyl)-2-[6-(trifluorome] [(+)2-chloro-6-fluoro-N-[2-(4-fluorophenyl)-2-[6-(trifluoromethyl)-3-pyridyl]ethyl]benzamide], 15 nM. `O=C(NCC(c1cnc(C(F)(F)F)nc1)C1CCOCC1)c1c(F)cccc1Cl` (single isomer, unassigned; (+)) [(+)2-chloro-6-fluoro-N-[2-tetrahydropyran-4-yl-2-[2-(trifluo] [(+)2-chloro-6-fluoro-N-[2-tetrahydropyran-4-yl-2-[2-(trifluoromethyl)pyrimidin-5-yl]ethyl]benzamide]: the IC50 turned out to be 56 nM. For `Cc1ncc(C(CNC(=O)c2ccccc2Cl)C2CCOCC2)cn1` (single isomer, unassigned; (+)) [(+)2-chloro-N-[2-(2-methylpyrimidin-5-yl)-2-tetrahydropyran-] [(+)2-chloro-N-[2-(2-methylpyrimidin-5-yl)-2-tetrahydropyran-4-yl-ethyl]benzamide] the value was 970 nM. The figure for `Cc1ncc(C(CNC(=O)c2ccccc2Cl)CC2(C(F)(F)F)CC2)cn1` (single isomer, unassigned; (+)) [(+)2-chloro-N-[2-(2-methylpyrimidin-5-yl)-3-[1-(trifluoromet] [(+)2-chloro-N-[2-(2-methylpyrimidin-5-yl)-3-[1-(trifluoromethyl)cyclopropyl]propyl]benzamide] is 130 nM; for `O=C(NCC(c1cnc(C(F)(F)F)nc1)C1CCC(F)(F)CC1)c1c(F)cccc1Cl` (single isomer, unassigned; (+)) [(+)2-chloro-N-[2-(4,4-difluorocyclohexyl)-2-[2-(trfluorometh] [(+)2-chloro-N-[2-(4,4-difluorocyclohexyl)-2-[2-(trfluoromethyl)pyrimidin-5-yl]ethyl]-6-fluoro-benzamide] it is 75 nM. With `O=C(NCC(c1cnc(C(F)(F)F)nc1)C1CCC(F)(F)CC1)c1cccc(F)c1Cl` (single isomer, unassigned; (+)) [(+)2-chloro-N-[2-(4,4-difluorocyclohexyl)-2-[2-(trifluoromet] [(+)2-chloro-N-[2-(4,4-difluorocyclohexyl)-2-[2-(trifluoromethyl)pyrimidin-5-yl]ethyl]-3-fluoro-benzamide], the IC50 was found to be 45 nM. For the compound `O=C(NCC(c1cnc(C(F)(F)F)nc1)C1CCC(F)(F)CC1)c1ccccc1Cl` (single isomer, unassigned; (+)) [(+)2-chloro-N-[2-(4,4-difluorocyclohexyl)-2-[2-(trifluoromet] [(+)2-chloro-N-[2-(4,4-difluorocyclohexyl)-2-[2-(trifluoromethyl)pyrimidin-5-yl]ethyl]benzamide], the IC50 is 32 nM. Take `O=C(NCC(c1ccc(F)cc1)c1cnc(C(F)(F)F)nc1)c1ccccc1Cl` (single isomer, unassigned; (+)) [(+)2-chloro-N-[2-(4-fluorophenyl)-2-[2-(trifluoromethyl)pyri] [(+)2-chloro-N-[2-(4-fluorophenyl)-2-[2-(trifluoromethyl)pyrimidin-5-yl]ethyl]benzamide]: the IC50 is 4.4 nM. Consider `O=C(NCC(c1ccc(F)cc1)c1ccc(C(F)(F)F)nc1)c1ccccc1Cl` (single isomer, unassigned; (+)) [(+)2-chloro-N-[2-(4-fluorophenyl)-2-[6-(trifluoromethyl)-3-p] [(+)2-chloro-N-[2-(4-fluorophenyl)-2-[6-(trifluoromethyl)-3-pyridyl]ethyl]benzamide], for which the IC50 is 2.2 nM. The figure for `O=C(NCC(c1cnc(C(F)(F)F)nc1)C1CCOCC1)c1ccccc1Cl` (single isomer, unassigned; (+)) [(+)2-chloro-N-[2-tetrahydropyran-4-yl-2-[2-(trifluoromethyl)] [(+)2-chloro-N-[2-tetrahydropyran-4-yl-2-[2-(trifluoromethyl)pyrimidin-5-yl]ethyl]benzamide] is 51 nM; for `O=C(NCC(CC1(C(F)(F)F)CC1)c1cnc(C(F)(F)F)nc1)c1ccccc1Cl` (single isomer, unassigned; (+)) [(+)2-chloro-N-[3-[1-(trifluoromethyl)cyclopropyl]-2-[2-(trifluoromethyl)pyrimidin-5-yl]propyl]benzamide] it is 2.4 nM; for `O=C(NCC(CC1(C(F)(F)F)CC1)c1ccc(C(F)(F)F)nc1)c1ccccc1Cl` (single isomer, unassigned; (+)) [(+)2-chloro-N-[3-[1-(trifluoromethyl)cyclopropyl]-2-[6-(trif] [(+)2-chloro-N-[3-[1-(trifluoromethyl)cyclopropyl]-2-[6-(trifluoromethyl)-3-pyridyl]propyl]benzamide] it is 0.09 nM.

In the case of `O=C(NCC(CC1CC1)c1cnc(C(F)(F)F)nc1)c1cccc(F)c1Cl` (single isomer, unassigned; (+)) [(+)2-chloro-N-[3-cyclopropyl-2-[2-(trifluoromethyl)pyrimidin] [(+)2-chloro-N-[3-cyclopropyl-2-[2-(trifluoromethyl)pyrimidin-5-yl]propyl]-3-fluoro-benzamide], the IC50 is 50 nM. With `COc1cccc(C(=O)NCC(CC2CC2)c2cnc(C(F)(F)F)nc2)c1Cl` (single isomer, unassigned; (+)) [(+)2-chloro-N-[3-cyclopropyl-2-[2-(trifluoromethyl)pyrimidin] [(+)2-chloro-N-[3-cyclopropyl-2-[2-(trifluoromethyl)pyrimidin-5-yl]propyl]-3-methoxy-benzamide], the IC50 worked out at 14 nM.

Consider `O=C(NCC(CC1CC1)c1cnc(C(F)(F)F)nc1)c1c(F)cccc1Cl` (single isomer, unassigned; (+)) [(+)2-chloro-N-[3-cyclopropyl-2-[2-(trifluoromethyl)pyrimidin] [(+)2-chloro-N-[3-cyclopropyl-2-[2-(trifluoromethyl)pyrimidin-5-yl]propyl]-6-fluoro-benzamide], for which the IC50 worked out at 41 nM. With `O=C(NCC(CC1CC1)c1cnc(C(F)(F)F)nc1)c1ccccc1Cl` (single isomer, unassigned; (+)) [(+)2-chloro-N-[3-cyclopropyl-2-[2-(trifluoromethyl)pyrimidin] [(+)2-chloro-N-[3-cyclopropyl-2-[2-(trifluoromethyl)pyrimidin-5-yl]propyl]benzamide], the IC50 amounted to 38 nM. For `O=C(NCC(CC1CC1)c1ccc(C(F)F)nc1)c1cccc(F)c1Cl` (single isomer, unassigned; (+)) [(+)2-chloro-N-[3-cyclopropyl-2-[6-(difluoromethyl)-3-pyridyl] [(+)2-chloro-N-[3-cyclopropyl-2-[6-(difluoromethyl)-3-pyridyl]propyl]-3-fluoro-benzamide] the value was 800 nM; for `O=C(NCC(CC1CC1)c1ccc(C(F)F)nc1)c1ccccc1Cl` (single isomer, unassigned; (+)) [(+)2-chloro-N-[3-cyclopropyl-2-[6-(difluoromethyl)-3-pyridyl] [(+)2-chloro-N-[3-cyclopropyl-2-[6-(difluoromethyl)-3-pyridyl]propyl]benzamide], 640 nM.

`COc1cccc(C(=O)NCC(CC2CC2)c2ccc(C(F)F)nc2)c1Cl` (single isomer, unassigned; (+)) [(+)2-chloro-N-[3-cyclopropyl-2-[6-(difluoromethyl)-3-pyridyl]propyl]-3-methoxy-benzamide]: the IC50 turned out to be 4.4 nM. On to `O=C(NCC(CC1CC1)c1ccc(C(F)(F)F)nc1)c1cccc(C(F)(F)F)c1Cl` (single isomer, unassigned; (+)) [(+)2-chloro-N-[3-cyclopropyl-2-[6-(trifluoromethyl)-3-pyridy] [(+)2-chloro-N-[3-cyclopropyl-2-[6-(trifluoromethyl)-3-pyridyl]propyl]-3-(trifluoromethyl)benzamide], for which the IC50 came out at 1100 nM. The figure for `O=C(NCC(CC1CC1)c1ccc(C(F)(F)F)nc1)c1cccc(F)c1Cl` (single isomer, unassigned; (+)) [(+)2-chloro-N-[3-cyclopropyl-2-[6-(trifluoromethyl)-3-pyridy] [(+)2-chloro-N-[3-cyclopropyl-2-[6-(trifluoromethyl)-3-pyridyl]propyl]-3-fluoro-benzamide] is 11 nM; for `COc1cccc(C(=O)NCC(CC2CC2)c2ccc(C(F)(F)F)nc2)c1Cl` (single isomer, unassigned; (+)) [(+)2-chloro-N-[3-cyclopropyl-2-[6-(trifluoromethyl)-3-pyridy] [(+)2-chloro-N-[3-cyclopropyl-2-[6-(trifluoromethyl)-3-pyridyl]propyl]-3-methoxy-benzamide] it is 12 nM.
